Test results taken from patent US7166744B2, “Retinoid derivatives and methods for producing said compounds and anti-cancer pharmaceutical composition comprising said compounds” (Chebigen Co., Ltd., priority 2001, dated 2007).

system: colon cancer cells; experiment: MTT proliferation assay, colon cancer cells (Table 1); assay type: cell-based; conditions: 48 hours, concentration required for 50% growth inhibition, read-out: IC50, activities of various retinoid derivatives in colon cancer cells
Experimental: The effects of test compounds on proliferation of various cancer cells was examined by 3-(4,5-dimethylthiazol-2-yl)-2,5-diphenyltetrazolium bromide (MTT, Sigma) assay in a dose dependent manner. In the MTT assay, colon, liver, cervix, ovary, and breast cancer cell lines were treated with test compounds at various concentrations. Living cancer cells reduce MTT to dark blue MTT formazan that would be measured by absorbance.
Colon cancer cells, HCT116, DLD-1 and HT29, cervix cancer cells, HeLa and CaSki, ovary cancer cells, SKOV-3, 2774 and OVCAR-3, liver cancer cells, SK-Hep-1, PLCPRF5 and HepG2, and breast cancer cells, ZR75-1 and MDA-MB 231 were seeded at an initial density of 3000 cells per well in 96-well plates. After attachment of cells to the walls of the wells, the medium containing fresh retinoid was treated with various concentrations (0.5 μM, 1 μM, 2.5 μM, 5 μM, 10 μM) for 48 hours. 50 μl of MTT solution (2 mg/ml in PBS) was added to cell culture media. The reaction micture was incubated at 37° C. in a 5% CO2 atmosphere for 4 hours. The supernatant was removed and 150 μl of DMSO was added. The optical density was measured spectrophotometrically at 550 nm. […] For other retinoid derivatives according to the present invention, absorbances were measured by this procedure and IC50 values, concentrations required for 50% growth inhibition, were determined.

“2-[(2E,4E,6E,8E)-3,7-Dimethyl-9-(2,6,6-trimethylcyclohex-1-enyl)-nona-2,4,6,8-tetraenoylamino]-5-hydroxyphenyl(dimethylamino)acetate [KCBG23]” and “4-(4-[(2E,4E,6E,8E)-3,7-dimethyl-9-(2,6,6-trimethyl-1-cyclohexenyl)-2,4,6,8-nonatetraenoyl]aminophenoxy)-4-oxobutanoic acid [KCBG32]” are within 1.5-fold of each other in IC50: 3.5 µM for the first, 5 µM for the second.

“4-(4-[(2E,4E,6E,8E)-3,7-dimethyl-9-(2,6,6-trimethyl-1-cyclohexenyl)-2,4,6,8-nonatetraenoyl]aminophenoxy)-oxo-heptanedioic acid [KCBG53]” and “4-(4-[(2E,4E,6E,8E)-3,7-dimethyl-9-(2,6,6-trimethyl-1-cyclohexenyl)-2,4,6,8-nonatetraenoyl]aminophenoxy)-oxo-hexanedioic acid [KCBG51]” are within 1.5-fold of each other in IC50: 6.5 µM for the first, 4.5 µM for the second.

First: CC1=C(/C=C/C(C)=C/C=C/C(C)=C/C(=O)Nc2ccc(O)cc2O)C(C)(C)CCC1 [KCBG08, (2E,4E,6E,8E)-[3,7-dimethyl-9-(2,6,6-trimethylcyclohex-1-enyl)-nona-2,4,6,8-tetraenoyl]-(2,4-dihydroxy)phenylamide]
Second: CCCC(=O)Oc1ccc(NC(=O)C=C(C)C=CC=C(C)C=CC2=C(C)CCCC2(C)C)c(OC(=O)CCC)c1 [KCBG09, 5-Butyryloxy-2-[3,7-dimethyl-9-(2,6,6-trimethylcyclohex-1-enyl)-nona-2,4,6,8-tetraenoylamino]-phenylbutanoate]
The IC50 of the first is higher: greater than 100 µM for the first, 10 to 20 µM for the second. The second is the more potent here.

`CCC(=O)Oc1cc(O)ccc1NC(=O)/C=C(C)/C=C/C=C(C)/C=C/C1=C(C)CCCC1(C)C` [KCBG15, 2-[(2E,4E,6E,8E)-3,7-dimethyl-9-(2,6,6-trimethylcyclohex-1-enyl)-nona-2,4,6,8-tetraenoylamino]-5-hydroxyphenylpropionate] and `CC(=O)C(=O)Oc1cc(O)ccc1NC(=O)/C=C(C)/C=C/C=C(C)/C=C/C1=C(C)CCCC1(C)C` [KCBG22, 2-[(2E,4E,6E,8E)-3,7-dimethyl-9-(2,6,6-trimethylcyclohex-1-enyl)-nona-2,4,6,8-tetraenoylamino]-5-hydroxyphenyl-2-oxopropionate] are within 1.5-fold of each other in IC50: 8 µM for the first, 6 µM for the second.

Compared with `CCCC(=O)Oc1ccc(NC(=O)/C=C(C)/C=C/C=C(C)/C=C/C2=C(C)CCCC2(C)C)cc1OC(=O)CCC` [KCBG34, 2-Butyryloxy-5-(2E,4E,6E,8E)-[3,7-dimethyl-9-(2,6,6-trimethylcyclohex-1-enyl)-nona-2,4,6,8-tetraenoylamino]phenylbutanoate], `CCCC(=O)Oc1cc(NC(=O)/C=C(C)/C=C/C=C(C)/C=C/C2=C(C)CCCC2(C)C)ccc1O` [KCBG35, 5-(2E,4E,6E,8E)-[3,7-dimethyl-9-(2,6,6-trimethylcyclohex-1-enyl)-nona-2,4,6,8-tetraenoylamino]-2-hydroxyphenylbutanoate] is 1.5-fold lower in IC50: 3 µM for the first, 2 µM for the second. The second is the more potent here.

Going from `CCC(=O)C(=O)Oc1cc(O)ccc1NC(=O)/C=C(C)/C=C/C=C(C)/C=C/C1=C(C)CCCC1(C)C` [KCBG38, 2-[(2E,4E,6E,8E)-3,7-dimethyl-9-(2,6,6-trimethylcyclohex-1-enyl)-nona-2,4,6,8-tetraenoylamino]-5-hydroxyphenyl 2-oxobutanoate] to `CC1=C(/C=C/C(C)=C/C=C/C(C)=C/C(=O)Nc2ccc(O)cc2OC(=O)CC(C)O)C(C)(C)CCC1` (stereo not drawn) [KCBG39, 2-[(2E,4E,6E,8E)-3,7-dimethyl-9-(2,6,6-trimethylcyclohex-1-enyl)-nona-2,4,6,8-tetraenoylamino]-5-hydroxyphenyl-3-hydroxybutanoate], the IC50 rises from 2 µM to 3 µM (1.5-fold).

Going from `CCCC(=O)Nc1ccc(NC(=O)/C=C(C)/C=C/C=C(C)/C=C/C2=C(C)CCCC2(C)C)cc1` [KCBG40, (2E,4E,6E,8E)-[3,7-dimethyl-9-(2,6,6-trimethylcyclohex-1-enyl)-nona-2,4,6,8-tetraenoylamino]-(4-butyrylamino)phenylamide] to `CCCC(=O)Nc1cc(NC(=O)/C=C(C)/C=C/C=C(C)/C=C/C2=C(C)CCCC2(C)C)ccc1OC(=O)CCC` [KCBG42, 2-Butyrylamino-4-(2E,4E,6E,8E)-[3,7-dimethyl-9-(2,6,6-trimethylcyclohex-1-enyl)-nona-2,4,6,8-tetraenoylamino]-phenylbutanoate], the IC50 rises from 0.6 µM to 7 µM (12-fold). The first is the more potent here.

Going from `CCCCS(=O)(=O)Oc1ccc(NC(=O)/C=C(C)/C=C/C=C(C)/C=C/C2=C(C)CCCC2(C)C)cc1` [KCBG43, 4-[(2E,4E,6E,8E)-3,7-dimethyl-9-(2,6,6-trimethyl-1-cyclohexenyl)-2,4,6,8-nonatetraenoyl]aminophenyl-1-butanesulfonate] to `CC(=O)C(=O)Oc1ccc(NC(=O)/C=C(C)/C=C/C=C(C)/C=C/C2=C(C)CCCC2(C)C)cc1` [KCBG45, 4-[(2E,4E,6E,8E)-3,7-dimethyl-9-(2,6,6-trimethyl-1-cyclohexenyl)-2,4,6,8-nonatetraenoyl]aminophenyl-2-oxopropanoate], the IC50 rises from 4 µM to 7 µM (1.8-fold).

Compared with `CCC(=O)C(=O)Oc1ccc(NC(=O)/C=C(C)/C=C/C=C(C)/C=C/C2=C(C)CCCC2(C)C)cc1` [KCBG47, 4-[(2E,4E,6E,8E)-3,7-dimethyl-9-(2,6,6-trimethyl-1-cyclohexenyl)-2,4,6,8-nonatetraenoyl]aminophenyl-2-oxobutanoate], `CC1=C(/C=C/C(C)=C/C=C/C(C)=C/C(=O)Nc2ccc(OC(=O)CCC(=O)O)cc2)C(C)(C)CCC1` [KCBG50, 4-(4-[(2E,4E,6E,8E)-3,7-dimethyl-9-(2,6,6-trimethyl-1-cyclohexenyl)-2,4,6,8-nonatetraenoyl]aminophenoxy)-4-oxobutanoic acid] is 3.1-fold higher in IC50: 1.8 µM for the first, 5.5 µM for the second. The first is the more potent here.

Compared with `CC(=O)NC(CCC(N)=O)C(=O)Oc1ccc(NC(=O)/C=C(C)/C=C/C=C(C)/C=C/C2=C(C)CCCC2(C)C)cc1` (stereo not drawn) [KCBG52, 4-[(2E,4E,6E,8E)-3,7-dimethyl-9-(2,6,6-trimethylcyclohex-1-enyl)-nona-2,4,6,8-tetraenoylamino]phenyl-2-acetylamino-4-carbamoylbutanoate], `CC1=C(/C=C/C(C)=C/C=C/C(C)=C/C(=O)Nc2ccc(OC(=O)CCCCCCC(=O)O)cc2)C(C)(C)CCC1` [KCBG54, 4-(4-[(2E,4E,6E,8E)-3,7-dimethyl-9-(2,6,6-trimethyl-1-cyclohexenyl)-2,4,6,8-nonatetraenoyl]aminophenoxy)-oxo-octanedionic acid] is 2-fold lower in IC50: 7 µM for the first, 3.5 µM for the second.

system: HCT116 colon cancer cells; experiment: DAPI staining of nuclei, HCT116; assay type: cell-based; conditions: HCT116, 5 μM, 36 h
Experimental: By DAPI (4,6-diamidino-2-phenylindole) staining assay for staining DNA in cellular nucleus, nuclear condensation and fragmentation, characteristic features of apoptosis, were observed. […] In FIG. 4, the control represents non-treated cells. The sub-G1 DNA contents of colon cancer HTC116 cells and breast cancer MCF-7 cells were measured by FACS (Fluorescence-Activated Cell Sorter) assay to quantify the apoptosis (FIG. 5). Finally, in order to further characterize the apoptosis observed in retinoid derivative-treated cells, the cleavage of apoptosis-related proteins, including PARP (poly(ADP-ribose)polymerase) and CPP32 (caspase-3) by Western blotting. […] PARP cleavage occurred in a time-dependent manner, in parallel with the induction of apoptosis (FIG. 6B). C in FIG. 6 represents the result of Western blotting of non-treated cells.
Meanwhile, HPR which is a precursor during the synthesis process of KCBG60 is known to induce apoptosis. Considering that the cells aggregated into small spherical mass upon treatment with KCBG60, KCBG60 is expected to induce apoptosis. In order to confirm apoptosis induced by KCBG60 once again, KCBG60-treated HCT116 cells were stained with DAPI and observed for nuclear condensation, an indicative of apoptosis (FIG. 12).

In the case of `CCCC(=O)Nc1ccc(NC(=O)/C=C(C)/C=C/C=C(C)/C=C/C2=C(C)CCCC2(C)C)cc1` [KCBG40, (2E,4E,6E,8E)-[3,7-dimethyl-9-(2,6,6-trimethylcyclohex-1-enyl)-nona-2,4,6,8-tetraenoylamino]-(4-butyrylamino)phenylamide], the “nuclear condensation and fragmentation (DAPI)” value is reported as “largely showed nuclear fragmentation”.

system: MMP-1 mRNA expression; experiment: RT-PCR of MMP-1 mRNA in HCT116; assay type: cell-based; conditions: HCT116, 1 μM, 36 hours
Experimental: (§1) Previously, it was shown that the synthetic retinoid derivatives inhibit the transcriptional activity of AP-1. Also, it is well known that MMP (matrix metalloproteinase), a main target gene of AP-1 is involved in metastasis of cancer cells. Therefore, the inhibitive effects of the retinoid derivatives on metastasis of cancer was examined by RT-PCR analysis. Colon cancer HCT116 cells were treated with 1 μM retinoid for 36 hours. RNA was isolated from the cells and mRNA expression levels of MMP-1, -2 and -3 were analyzed by RT-PCR. […] As the control, GAPDH was used and it was confirmed that its expression was not affected by retinoid. Meanwhile, the expression level of MMP-3 was affected weakly by KCBG40, intermediately by KCBG41 but strongly by KCBG10 (FIG. 9).
(§2) RNA was isolated from the cells and mRNA expression levels of MMP-1, -2 and -3 were analyzed by RT-PCR (FIG. 14).

With `CCCC(=O)Nc1ccc(NC(=O)/C=C(C)/C=C/C=C(C)/C=C/C2=C(C)CCCC2(C)C)cc1` [KCBG40, (2E,4E,6E,8E)-[3,7-dimethyl-9-(2,6,6-trimethylcyclohex-1-enyl)-nona-2,4,6,8-tetraenoylamino]-(4-butyrylamino)phenylamide] the “inhibition of MMP-1 mRNA expression” value was “affected very little”.

system: MMP-2 mRNA expression; experiment: RT-PCR of MMP-2 mRNA in HCT116; assay type: cell-based; conditions: HCT116, 1 μM, 36 hours
Experimental: as §1, §2

With `CCCC(=O)Nc1ccc(NC(=O)/C=C(C)/C=C/C=C(C)/C=C/C2=C(C)CCCC2(C)C)cc1` [KCBG40, (2E,4E,6E,8E)-[3,7-dimethyl-9-(2,6,6-trimethylcyclohex-1-enyl)-nona-2,4,6,8-tetraenoylamino]-(4-butyrylamino)phenylamide] the “inhibition of MMP-2 mRNA expression” value was “affected very little”.

system: MMP-3 mRNA expression; experiment: RT-PCR of MMP-3 mRNA in HCT116; assay type: cell-based; conditions: HCT116, 1 μM, 36 hours
Experimental: as §1

For `CCCC(=O)Nc1ccc(NC(=O)/C=C(C)/C=C/C=C(C)/C=C/C2=C(C)CCCC2(C)C)cc1` [KCBG40, (2E,4E,6E,8E)-[3,7-dimethyl-9-(2,6,6-trimethylcyclohex-1-enyl)-nona-2,4,6,8-tetraenoylamino]-(4-butyrylamino)phenylamide], the “effect on MMP-3 mRNA expression level” value was “weakly”.
